{
  "source": "patent US9663460B2",
  "about": "“Sulfur derivatives as chemokine receptor modulators” (ALLERGAN, INC., priority 2010, dated 2017)",
  "data": [
    {"biological_target": "CCR2 (Homo sapiens (Human), UniProt P41597)", "sequence (P41597 whole entry, species assumed)": "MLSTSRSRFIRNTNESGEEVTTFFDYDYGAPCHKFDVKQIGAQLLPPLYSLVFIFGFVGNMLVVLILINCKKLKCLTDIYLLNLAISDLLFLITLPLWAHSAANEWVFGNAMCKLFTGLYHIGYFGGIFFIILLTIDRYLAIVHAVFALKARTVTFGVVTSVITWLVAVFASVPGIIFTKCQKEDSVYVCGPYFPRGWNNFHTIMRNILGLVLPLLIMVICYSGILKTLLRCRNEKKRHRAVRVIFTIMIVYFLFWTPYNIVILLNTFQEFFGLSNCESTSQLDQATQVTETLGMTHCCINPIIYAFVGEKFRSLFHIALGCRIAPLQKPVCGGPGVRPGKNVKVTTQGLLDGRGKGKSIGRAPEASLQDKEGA", "assay": "Calcium activity assayed on the FLIPR Tetra in HEK-Gqi5 cells stably expressing CCR2", "format": "cell-based", "conditions": "FLIPR Tetra calcium assay", "units": {"CCR2 % ANTAGONISM": "%", "IC50": "µM"}, "values": [
      {"smiles": "O=S(=O)(Cc1ccccn1)c1ccc(Cl)cc1NS(=O)(=O)c1cc2ccccc2o1", "note": "[N-{5-chloro-2-[(pyridin-2-ylmethyl)sulfonyl]phenyl}-1-benzofuran-2-sulfonamide]", "CCR2 % ANTAGONISM": 100, "IC50": 0.029},
      {"smiles": "O=S(=O)(Nc1cc(Cl)ccc1SCc1ccccn1)c1cc2ccccc2o1", "note": "[N-{5-chloro-2-[(pyridin-2-ylmethyl)thio]phenyl}-1-benzofuran-2-sulfonamide]", "CCR2 % ANTAGONISM": 91, "IC50": 0.035},
      {"smiles": "O=S(=O)(Nc1cc(Cl)ccc1[S+]([O-])Cc1cccnc1)c1cc2ccccc2o1", "note": "(stereo not drawn) [N-{5-chloro-2-[(pyridin-3-ylmethyl)sulfinyl]phenyl}-1-benzofuran-2-sulfonamide]", "CCR2 % ANTAGONISM": 100, "IC50": 0.076},
      {"smiles": "O=S(=O)(Cc1cccnc1)c1ccc(Cl)cc1NS(=O)(=O)c1cc2ccccc2o1", "note": "[N-{5-chloro-2-[(pyridin-3-ylmethyl)sulfonyl]phenyl}-1-benzofuran-2-sulfonamide]", "CCR2 % ANTAGONISM": 93, "IC50": 0.032},
      {"smiles": "O=S(=O)(Nc1cc(Cl)ccc1SCc1cccnc1)c1cc2ccccc2o1", "note": "[N-{5-chloro-2-[(pyridin-3-ylmethyl)thio]phenyl}-1-benzofuran-2-sulfonamide]", "CCR2 % ANTAGONISM": 97, "IC50": 0.022},
      {"smiles": "O=S(=O)(Nc1cc(Cl)ccc1[S+]([O-])Cc1ncccn1)c1cc2ccccc2o1", "note": "(stereo not drawn) [N-{5-chloro-2-[(pyrimidin-2-ylmethyl)sulfinyl]phenyl}-1-benzofuran-2-sulfonamide]", "CCR2 % ANTAGONISM": 104, "IC50": 0.506},
      {"smiles": "O=S(=O)(Cc1ncccn1)c1ccc(Cl)cc1NS(=O)(=O)c1cc2ccccc2o1", "note": "[N-{5-chloro-2-[(pyrimidin-2-ylmethyl)sulfonyl]phenyl}-1-benzofuran-2-sulfonamide]", "CCR2 % ANTAGONISM": 104, "IC50": 0.151},
      {"smiles": "O=S(=O)(Nc1cc(Cl)ccc1SCc1ncccn1)c1cc2ccccc2o1", "note": "[N-{5-chloro-2-[(pyrimidin-2-ylmethyl)thio]phenyl}-1-benzofuran-2-sulfonamide]", "CCR2 % ANTAGONISM": 100, "IC50": 0.549},
      {"smiles": "O=S(=O)(Nc1cc(Cl)ccc1[S+]([O-])C(F)(F)F)c1cc2ccccc2o1", "note": "(stereo not drawn) [N-{5-chloro-2-[(trifluoromethyl)sulfinyl]phenyl}-1-benzofuran-2-sulfonamide]", "CCR2 % ANTAGONISM": 89, "IC50": 0.019},
      {"smiles": "O=S(=O)(Nc1cc(Cl)ccc1S(=O)(=O)C(F)(F)F)c1cc2ccccc2o1", "note": "[N-{5-chloro-2-[(trifluoromethyl)sulfonyl]phenyl}-1-benzofuran-2-sulfonamide]", "CCR2 % ANTAGONISM": 91, "IC50": 0.073},
      {"smiles": "O=S(=O)(Nc1cc(Cl)ccc1SC(F)(F)F)c1cc2ccccc2o1", "note": "[N-{5-chloro-2-[(trifluoromethyl)thio]phenyl}-1-benzofuran-2-sulfonamide]", "CCR2 % ANTAGONISM": 92, "IC50": 0.333},
      {"smiles": "O=[N+]([O-])c1cccc(C[S+]([O-])c2ccc(F)cc2NS(=O)(=O)c2cc3ccccc3o2)c1", "note": "(stereo not drawn) [N-{5-fluoro-2-[(3-nitrobenzyl)sulfinyl]phenyl}-1-benzofuran-2-sulfonamide]", "CCR2 % ANTAGONISM": 96, "IC50": 0.314},
      {"smiles": "O=[N+]([O-])c1cccc(CS(=O)(=O)c2ccc(F)cc2NS(=O)(=O)c2cc3ccccc3o2)c1", "note": "[N-{5-fluoro-2-[(3-nitrobenzyl)sulfonyl]phenyl}-1-benzofuran-2-sulfonamide]", "CCR2 % ANTAGONISM": 81, "IC50": 0.693},
      {"smiles": "COc1ccc([S+]([O-])Cc2cccc([N+](=O)[O-])c2)c(NS(=O)(=O)c2cc3ccccc3o2)c1", "note": "(stereo not drawn) [N-{5-methoxy-2-[(3-nitrobenzyl)sulfinyl]phenyl}-1-benzofuran-2-sulfonamide]", "CCR2 % ANTAGONISM": 84, "IC50": 0.845},
      {"smiles": "CCOC(=O)C[S+]([O-])c1ccc(Cl)cc1NS(=O)(=O)c1ccc(Cl)c(C(F)(F)F)c1", "note": "(stereo not drawn) [ethyl {[4-chloro-2-({[4-chloro-3-(trifluoromethyl)phenyl]sulfonyl}amino)phenyl]sulfinyl}acetate]", "CCR2 % ANTAGONISM": 79, "IC50": 0.141},
      {"smiles": "COC(=O)CC[S+]([O-])c1ccc(Cl)cc1NS(=O)(=O)c1ccc(Cl)c(C(F)(F)F)c1", "note": "(stereo not drawn) [methyl 3-{[4-chloro-2-({[4-chloro-3-(trifluoromethyl)phenyl]sulfonyl}amino)phenyl]sulfinyl}propanoate]", "CCR2 % ANTAGONISM": 82, "IC50": 0.108},
      {"smiles": "CC(C)(C)OC(=O)Nc1nc(C[S+]([O-])c2ccc(Cl)cc2NS(=O)(=O)c2cc3ccccc3o2)cs1", "note": "(stereo not drawn) [tert-butyl {4-[({2-[(1-benzofuran-2-ylsulfonyl)amino]-4-chlorophenyl}sulfinyl)methyl]-1,3-thiazol-2-yl}carbamate]", "CCR2 % ANTAGONISM": 101, "IC50": 2.4},
      {"smiles": "CC(C)(C)OC(=O)Nc1nc(CS(=O)(=O)c2ccc(Cl)cc2NS(=O)(=O)c2cc3ccccc3o2)cs1", "note": "[tert-butyl {4-[({2-[(1-benzofuran-2-ylsulfonyl)amino]-4-chlorophenyl}sulfonyl)methyl]-1,3-thiazol-2-yl}carbamate]", "CCR2 % ANTAGONISM": 72},
      {"smiles": "CC(C)(C)OC(=O)Nc1cc(CS(=O)(=O)c2ccc(Cl)cc2NS(=O)(=O)c2cc3ccccc3o2)cc[n+]1[O-]", "note": "[tert-butyl {4-[({2-[(1-benzofuran-2-ylsulfonyl)amino]-4-chlorophenyl}sulfonyl)methyl]-1-oxidopyridin-2-yl}carbamate]", "CCR2 % ANTAGONISM": 29, "IC50": 2.87},
      {"smiles": "CC(C)(C)OC(=O)Nc1cc(CS(=O)(=O)c2ccc(Cl)cc2NS(=O)(=O)c2cc3ccccc3o2)ccn1", "note": "[tert-butyl {4-[({2-[(1-benzofuran-2-ylsulfonyl)amino]-4-chlorophenyl}sulfonyl)methyl]pyridin-2-yl}carbamate]", "CCR2 % ANTAGONISM": 76, "IC50": 2.26},
      {"smiles": "CC(C)(C)OC(=O)Nc1nc(CSc2ccc(Cl)cc2NS(=O)(=O)c2cc3ccccc3o2)cs1", "note": "[tert-butyl {4-[({2-[(1-benzofuran-2-ylsulfonyl)amino]-4-chlorophenyl}thio)methyl]-1,3-thiazol-2-yl}carbamate]", "CCR2 % ANTAGONISM": 28, "IC50": 2.43},
      {"smiles": "CC(C)(C)OC(=O)Nc1cc(CSc2ccc(Cl)cc2NS(=O)(=O)c2cc3ccccc3o2)ccn1", "note": "[tert-butyl {4-[({2-[(1-benzofuran-2-ylsulfonyl)amino]-4-chlorophenyl}thio)methyl]pyridin-2-yl}carbamate]", "CCR2 % ANTAGONISM": 40, "IC50": 2},
      {"smiles": "CC(C)(C)OC(=O)Nc1cccc(C[S+]([O-])c2ccc(Cl)cc2NS(=O)(=O)c2cc3ccccc3o2)n1", "note": "(stereo not drawn) [tert-butyl {6-[({2-[(1-benzofuran-2-ylsulfonyl)amino]-4-chlorophenyl}sulfinyl)methyl]pyridin-2-yl}carbamate]", "CCR2 % ANTAGONISM": 82, "IC50": 0.527}
    ]}
  ]
}
